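Step 1: Grow cells in 96-well plates. Step 2: Expose to compound for 48 hours at 5 concentrations. Step 3: Interpolate endpoints linearly; if unreached, use highest concentration. TGI marks complete inhibition of growth.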
Tests used:
Test in all cases: inhibition of tumour cell growth, NCI panel, 48 h
NCI-H522 lung = tested on: NCI-H522 lung
OVCAR-4 ovarian = tested on: OVCAR-4 ovarian
A498 renal = tested on: A498 renal
SK-MEL-2 melanoma = tested on: SK-MEL-2 melanoma
HCT-15 colon = tested on: HCT-15 colon
HOP-62 NSCLC = tested on: HOP-62 NSCLC
K-562 leukemia = tested on: K-562 leukemia
RXF 393 renal = tested on: RXF 393 renal
UACC-257 melanoma = tested on: UACC-257 melanoma
MDA-N = tested on: MDA-N
SF-539 CNS = tested on: SF-539 CNS
HCT-116 colon = tested on: HCT-116 colon
DU-145 prostate = tested on: DU-145 prostate
SN12C renal = tested on: SN12C renal
MCF7 breast = tested on: MCF7 breast
SNB-75 CNS = tested on: SNB-75 CNS
NCI-H226 lung = tested on: NCI-H226 lung
SW-620 colon = tested on: SW-620 colon
786-0 renal = tested on: 786-0 renal
HT29 colon = tested on: HT29 colon
PC-3 prostate = tested on: PC-3 prostate
UACC-62 melanoma = tested on: UACC-62 melanoma
SK-MEL-5 melanoma = tested on: SK-MEL-5 melanoma
NCI-H460 lung = tested on: NCI-H460 lung
MALME-3M melanoma = tested on: MALME-3M melanoma
RPMI-8226 leukemia = tested on: RPMI-8226 leukemia
MDA-MB-435 = tested on: MDA-MB-435
SF-268 CNS = tested on: SF-268 CNS
SR leukemia = tested on: SR leukemia
SF-295 CNS = tested on: SF-295 CNS
OVCAR-8 ovarian = tested on: OVCAR-8 ovarian
HL-60(TB) leukemia = tested on: HL-60(TB) leukemia
CAKI-1 renal = tested on: CAKI-1 renal
COLO 205 colon = tested on: COLO 205 colon
EKVX NSCLC = tested on: EKVX NSCLC
HOP-92 NSCLC = tested on: HOP-92 NSCLC
T-47D breast = tested on: T-47D breast
SNB-19 CNS = tested on: SNB-19 CNS
SK-OV-3 ovarian = tested on: SK-OV-3 ovarian
ACHN renal = tested on: ACHN renal
OVCAR-3 ovarian = tested on: OVCAR-3 ovarian
KM12 colon = tested on: KM12 colon
UO-31 renal = tested on: UO-31 renal
CCRF-CEM leukemia = tested on: CCRF-CEM leukemia
HS 578T breast = tested on: HS 578T breast
SK-MEL-28 melanoma = tested on: SK-MEL-28 melanoma
TK-10 renal = tested on: TK-10 renal
NCI/ADR-RES ovarian = tested on: NCI/ADR-RES ovarian
M14 melanoma = tested on: M14 melanoma
U251 CNS = tested on: U251 CNS
NCI-H23 lung = tested on: NCI-H23 lung
MDA-MB-231 breast = tested on: MDA-MB-231 breast
BT-549 breast = tested on: BT-549 breast
OVCAR-5 ovarian = tested on: OVCAR-5 ovarian
LOX IMVI melanoma = tested on: LOX IMVI melanoma
MOLT-4 leukemia = tested on: MOLT-4 leukemia
A549 NSCLC = tested on: A549 NSCLC
IGROV1 ovarian = tested on: IGROV1 ovarian
HOP-18 NSCLC = tested on: HOP-18 NSCLC
KM20L2 colon = tested on: KM20L2 colon
DMS 114 small cell lung = tested on: DMS 114 small cell lung
DLD-1 colon = tested on: DLD-1 colon
LXFL 529 NSCLC = tested on: LXFL 529 NSCLC
HCC-2998 colon = tested on: HCC-2998 colon
M19-MEL melanoma = tested on: M19-MEL melanoma
DMS 273 small cell lung = tested on: DMS 273 small cell lung
XF 498 CNS = tested on: XF 498 CNS
SNB-78 CNS = tested on: SNB-78 CNS

Measured: TGI

CCOC(=O)C1=C(O)C2C3CC4C2C(O)=C(C(=O)OCC)C2C1C3C42 (stereo not given)
35.2 µM: NCI/ADR-RES ovarian
not listed: HOP-18 NSCLC | KM20L2 colon | DMS 114 small cell lung | DLD-1 colon | LXFL 529 NSCLC | HCC-2998 colon | M19-MEL melanoma | DMS 273 small cell lung | XF 498 CNS | SNB-78 CNS
> 100 µM: all other assays above

O=C(c1nc2ccc([N+](=O)[O-])cc2[nH]c1=O)C(O)c1ccc2c(c1)OCO2 (stereo not given)
> 93 µM: KM12 colon
not listed: XF 498 CNS | SNB-78 CNS
> 100 µM: all other assays above

CC(=O)N/N=C1\CC(C)(C)C2CCC1C2 (stereo not given)
not listed: MDA-N | DU-145 prostate | MCF7 breast | NCI-H226 lung | HT29 colon | PC-3 prostate | MDA-MB-435 | SR leukemia | T-47D breast | HS 578T breast | NCI/ADR-RES ovarian | MDA-MB-231 breast | BT-549 breast | HOP-18 NSCLC | KM20L2 colon | DLD-1 colon | HCC-2998 colon
> 100 µM: all other assays above

Source: PubChem BioAssay (NCI)
